Reference: PMC10755729, “A Multiplexing Activity-Based Protein-Profiling Platform for Dissection of a Native Bacterial Xyloglucan-Degrading System” (ACS Central Science, 2023)

Tests used:
CjCel5B = biological target: T1, CjCel5B (Cellvibrio japonicus, UniProt B3PCS3); test: fluorogenic hydrolysis kinetics; type: biochemical; settings: 4MU release
T1 construct: gene cel5B; recombinant, produced in E. coli; native protein has N-terminal catalytic domain, serine-rich linker and C-terminal domain; borders of construct only in supplement
T1 sequence (B3PCS3 38-570): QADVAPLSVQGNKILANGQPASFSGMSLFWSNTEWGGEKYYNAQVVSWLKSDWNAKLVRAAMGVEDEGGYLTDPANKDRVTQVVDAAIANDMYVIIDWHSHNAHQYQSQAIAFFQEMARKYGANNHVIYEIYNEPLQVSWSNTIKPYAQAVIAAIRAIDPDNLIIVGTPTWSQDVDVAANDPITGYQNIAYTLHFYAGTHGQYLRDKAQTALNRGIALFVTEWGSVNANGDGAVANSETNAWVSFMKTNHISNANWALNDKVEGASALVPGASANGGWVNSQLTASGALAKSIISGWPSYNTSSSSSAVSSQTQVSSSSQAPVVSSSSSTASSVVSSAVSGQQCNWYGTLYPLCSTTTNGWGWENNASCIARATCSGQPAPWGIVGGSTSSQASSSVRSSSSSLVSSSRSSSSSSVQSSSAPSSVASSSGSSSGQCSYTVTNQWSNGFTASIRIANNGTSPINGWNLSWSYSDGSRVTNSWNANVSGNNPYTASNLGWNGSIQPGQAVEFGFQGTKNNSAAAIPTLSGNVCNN

CjXyl39A; Xyl39A = biological target: T2, CjXyl39A; Xyl39A (Cellvibrio japonicus, UniProt B3PD50); test: fluorogenic activity assay on 4MU glycosides; type: biochemical; settings: recombinant enzyme
T2 construct: recombinant, produced in E. coli (native in the pull-down)
T2 sequence (B3PD50 24-521): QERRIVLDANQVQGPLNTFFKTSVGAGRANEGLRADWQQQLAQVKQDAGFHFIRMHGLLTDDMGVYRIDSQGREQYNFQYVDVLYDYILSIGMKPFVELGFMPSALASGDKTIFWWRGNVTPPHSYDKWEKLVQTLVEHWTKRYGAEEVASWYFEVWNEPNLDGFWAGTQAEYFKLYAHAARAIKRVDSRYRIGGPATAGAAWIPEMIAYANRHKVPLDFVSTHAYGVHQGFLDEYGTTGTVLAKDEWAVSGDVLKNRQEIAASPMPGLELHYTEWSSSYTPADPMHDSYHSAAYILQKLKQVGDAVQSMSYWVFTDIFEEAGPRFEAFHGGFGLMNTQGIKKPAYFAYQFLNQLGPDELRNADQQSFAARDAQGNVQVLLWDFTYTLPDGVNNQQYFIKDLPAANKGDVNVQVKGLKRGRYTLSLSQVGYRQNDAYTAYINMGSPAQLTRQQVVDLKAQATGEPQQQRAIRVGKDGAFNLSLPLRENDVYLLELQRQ

SMILES	hydrolysis kinetics (CjCel5B)	activity (CjXyl39A; Xyl39A)
Cc1cc(=O)oc2cc(O[C@@H]3O[C@H](CO)[C@@H](O[C@@H]4O[C@H](CO[C@H]5OC[C@@H](O)[C@H](O)[C@H]5O)[C@@H](O[C@@H]5O[C@H](CO[C@H]6OC[C@@H](O)[C@H](O)[C@H]6O)[C@@H](O[C@@H]6O[C@H](CO[C@H]7OC[C@@H](O)[C@H](O)[C@H]7O)[C@@H](O)[C@H](O)[C@H]6O)[C@H](O)[C@H]5O)[C@H](O)[C@H]4O)[C@H](O)[C@H]3O)ccc12 [4MU-XXXG]	Kinetics for the hydrolysis of 4MU-XXXG and commercially available 4MU-cellotetraose were measured	–
Cc1cc(=O)oc2cc(O[C@@H]3OC[C@@H](O)[C@H](O)[C@H]3O)ccc12 [4-methylumbelliferyl (4MU) glycoside of β-D-xylose]	–	showed specific recognition of β-D-xylose over other glycosides
